Measurements as given in US10919935B2, “Antimicrobial peptide derived from myxinidin peptide and uses thereof” (INDUSTRY-ACADEMIC COOPERATION FOUNDATION, CHOSUN UNIVERSITY, priority 2015, dated 2021).
Residues, ends and D or L forms follow the SMILES beside them.

Experiments:
[1] = test system: Escherichia coli ATCC 25922; type: cell-based
Protocol: (§1) To compare the antimicrobial activity of the peptide produced by the method of Example 1, the inventors of the present invention measured the growth minimum inhibitory concentration (MIC), which is minimum concentration of the peptide showing no dissociation of bacterial cells.
(§2) Specifically, the bacterial strain described in the following Table 2 was purchased and cultured in each medium to a mid-log phase. Then, after dilution to bacterial cell concentration of 2×10^5 cells/100 μl, the cells were inoculated to a microtiter plate (NUNC, USA). Thereafter, myxinidin 1, myxinidin 2, or myxinidin 3 peptides which have been synthesized in Example 1 above was diluted, 1/2 times for each, with BSA (bovine serum albumin) solution in a 96-well plate. After adding the cells to a plate, the cells were cultured for 12 hours at 37° C. By using a microtiter plate reader (Merck Elisa reader, Germany), the absorbance was measured at a wavelength of 600 nm to determine the MIC value of each bacterial strain. As a control group, myxinidin as a mother peptide was subjected to the same processes as above and the MIC value of each bacterial strain was obtained.

[2] = test system: Escherichia coli CCARM 1229; type: cell-based
Protocol: as §1, §2

[3] = test system: Escherichia coli CCARM 1238; type: cell-based
Protocol: as §1, §2

[4] = test system: Listeria monocytogenes KCTC 3710; type: cell-based
Protocol: as §1, §2

[5] = test system: Pseudomonas aeruginosa ATCC 27853; type: cell-based
Protocol: as §1, §2

[6] = test system: Pseudomonas aeruginosa Isolated strain 3592; type: cell-based
Protocol: as §1, §2

[7] = test system: Pseudomonas aeruginosa Isolated strain 5018; type: cell-based
Protocol: as §1, §2

[8] = test system: Salmonella typhimurium CCARM 8009; type: cell-based
Protocol: as §1, §2

[9] = test system: Salmonella typhimurium CCARM 8013; type: cell-based
Protocol: as §1, §2

[10] = test system: Salmonella typhimurium KCTC 1926; type: cell-based
Protocol: as §1, §2

[11] = test system: Staphylococcus aureus ATCC 25923; type: cell-based
Protocol: as §1, §2

[12] = test system: Staphylococcus aureus CCARM 3114; type: cell-based
Protocol: as §1, §2

[13] = test system: Staphylococcus aureus CCARM 3709; type: cell-based
Protocol: as §1, §2

in vitro = type: cell-based; conditions: human, NHK cells (normal human keratinocytes)
Protocol: To determine the cytotoxicity of the peptide produced by the method of Example 1 in normal cell line, toxicity was measured by using NHK cells (Normal Human Keratinocyte cells).
Specifically, NHK cells which have been cultured in Epilife medium with 60 μM calcium (Gibco, USA) containing 10% HKGS (Human Keratinocyte Growth Supplement) (Gibco, USA) were aliquoted in a 96-well plate to have 1×10^4 cells per well. After culturing them for 24 hours, the cells were subjected to a treatment with myxinidin, myxinidin 1, myxinidin 2, or myxinidin 3 peptide, each at concentration of 3.125, 6.25, 12.5, or 25.0 μM/well, followed by reaction for 24 hours in a 5% CO2 incubator. After the culture, a reaction solution containing 5 mg/ml MTT (Thiazolyl Blue Tetrazolium Bromide) dissolved in physiological saline (PBS) was added in an amount of 20 μl to each well and allowed to react for 4 hours. After that, the supernatant was removed, and, by dissolving MTT crystals that are formed by adding 200 μl of DMSO, the absorbance at 560 nm was measured to determine the cell survival ability.

[14] = test system: membrane of Escherichia coli; assay: Confocal microscopy analysis with PI (Propidium iodide); type: cell-based; conditions: reaction for 10 minutes
Protocol: (§3) Specifically, myxinidin 2 or myxinidin 3, which have been synthesized in the above Example 1, was treated with PI (Propidium Iodide) solution and Escherichia coli or Staphylococcus aureus followed by reaction for 10 minutes. After the reaction, only pure Escherichia coli were collected by centrifuge (4,000 rpm) followed by removal of supernatant. Then, by adding 50 μl of physiological saline (PBS), cell aggregate was removed. By using LSM510 confocal microscope, the working mechanism of the peptide on Escherichia coli and Staphylococcus aureus membrane was determined.

[15] = test system: membrane of Staphylococcus aureus; assay: as above; type: cell-based; conditions: reaction for 10 minutes
Protocol: as §3

TNF-α, IL-6, and IL-8 = assay: ELISA of cytokines and chemokine in infected skin keratinocyte cells; type: cell-based, human; conditions: keratinocytes infected with S. aureus, A. baumannii or P. aeruginosa; peptide at 2 times MIC
Protocol: To specifically determine the anti-inflammatory effect of the synthetic peptide of the present invention, infection with Acinetobacter baumannii, Pseudomonas aeruginosa, or Staphylococcus aureus and a treatment with myxinidin 2 and myxinidin 3 synthetic peptides were carried out, and interleukin-6 (IL-6) and interleukin-8 (IL-8), which are a cytokine and a chemokine, and tumor necrosis factor alpha (TNF-α) were analyzed by enzyme-linked immunosorbent assay.
Specifically, interleukin-6, interleukin-8, and tumor necrosis factor-α were analyzed by a human immune assay kit. Human skin keratinocyte cells were infected with Staphylococcus aureus, Acinetobacter baumannii, or Pseudomonas aeruginosa, which are the bacterial strain having tolerance to antibiotics, followed by a treatment with the peptide at a concentration that is 2 times higher than the minimum inhibitory concentration to have a reaction. After that, only the supernatant was collected and subjected to an enzyme-linked immunosorbent assay.

[16] = test system: skin wound of mouse infected with bacteria having tolerance to antibiotics; assay: Healing of infected skin wound of mouse; type: in vivo, BALB/c female mouse; conditions: 5 mm biopsy punch wound, peptide at 2 times MIC, observed for 2 weeks
Source text: Healing process of skin wound of a mouse induced by the synthetic peptide of the present invention, in which the mouse has been infected with Acinetobacter baumannii, Pseudomonas aeruginosa, or Staphylococcus aureus as the bacterial strain having tolerance to antibiotics, was observed during different time periods. The animal tissue was stained by hematoxylin and eosin (H & E) staining to examine the skin tissue having inflammation.
Specifically, a wound was created in a 6 week to 7 week old BALB/c female mouse using 5 mm biopsy punch. Then, the mouse was infected with Staphylococcus aureus, Acinetobacter baumannii, or Pseudomonas aeruginosa, which are the bacterial strain having tolerance to antibiotics, followed by administration of the peptide at a concentration that is 2 times higher than the minimum inhibitory concentration.

Compound	Minimum growth inhibitory concentration [1] [µM]	Minimum growth inhibitory concentration [2] [µM]	Minimum growth inhibitory concentration [3] [µM]	Minimum growth inhibitory concentration [4] [µM]	Minimum growth inhibitory concentration [5] [µM]	Minimum growth inhibitory concentration [6] [µM]	Minimum growth inhibitory concentration [7] [µM]	Minimum growth inhibitory concentration [8] [µM]	Minimum growth inhibitory concentration [9] [µM]	Minimum growth inhibitory concentration [10] [µM]	Minimum growth inhibitory concentration [11] [µM]	Minimum growth inhibitory concentration [12] [µM]	Minimum growth inhibitory concentration [13] [µM]	viability at 24 h, 3.125 µM (in vitro) [%]	viability at 24 h, 6.25 µM (in vitro) [%]	viability at 24 h, 12.5 µM (in vitro) [%]	viability at 24 h, 25 µM (in vitro) [%]	Activity on membrane (PI, confocal microscopy) [14]	Activity on membrane (PI, confocal microscopy) [15]	Expression of cytokine and chemokine (IL-6, TNF-α, IL-8; ELISA) (TNF-α, IL-6, and IL-8)	also measured
CC[C@H](C)[C@H](NC(=O)[C@H](Cc1c[nH]c2ccccc12)NC(=O)[C@H](CCCCN)NC(=O)[C@@H](NC(=O)[C@@H](N)CCCCN)[C@@H](C)CC)C(=O)N[C@@H](CC(C)C)C(=O)N[C@@H](CCCCN)C(=O)N[C@@H](Cc1ccc(O)cc1)C(=O)N[C@@H](Cc1c[nH]c2ccccc12)C(=O)N[C@@H](CCCCN)C(=O)N[C@@H](Cc1c[nH]c2ccccc12)C(=O)N[C@@H](CO)C(N)=O [Myxinidin 2, KIKWILKYWKWS-NH2] (H-KIKWILKYWKWS-NH2; N-terminus assumed)	1	2	4	4	4	8	4	8	16	2	0.25	32	2	100	100	98	75	work on the membrane of Escherichia coli and Staphylococcus aureus to show PI	work on the membrane of Escherichia coli and Staphylococcus aureus to show PI	has decreased	Wound healing of infected mouse skin wound [16]: showed epidermalization and wound maturation
CC[C@H](C)[C@H](NC(=O)CN)C(=O)N[C@@H](Cc1c[nH]cn1)C(=O)N[C@@H](Cc1c[nH]cn1)C(=O)N[C@H](C(=O)N[C@@H](CC(C)C)C(=O)N[C@@H](CCCCN)C(=O)N[C@@H](Cc1ccc(O)cc1)C(=O)NCC(=O)N[C@@H](CCCCN)C(=O)N1CCC[C@H]1C(=O)N[C@@H](CO)C(N)=O)[C@@H](C)CC [Myxinidin 1, GIHHILKYGKPS-NH2] (H-GIHHILKYGKPS-NH2; N-terminus assumed)	>32	>32	>32	>32	>32	>32	>32	>32	>32	>32	>32	>32	>32	100	96	96	88	–	–	–	–
CC[C@H](C)[C@H](NC(=O)[C@H](Cc1c[nH]c2ccccc12)NC(=O)[C@H](CCCNC(=N)N)NC(=O)[C@@H](NC(=O)[C@@H](N)CCCNC(=N)N)[C@@H](C)CC)C(=O)N[C@@H](CC(C)C)C(=O)N[C@@H](CCCNC(=N)N)C(=O)N[C@@H](Cc1ccc(O)cc1)C(=O)N[C@@H](Cc1c[nH]c2ccccc12)C(=O)N[C@@H](CCCNC(=N)N)C(=O)N[C@@H](Cc1c[nH]c2ccccc12)C(=O)N[C@@H](CO)C(N)=O [Myxinidin 3, RIRWILRYWRWS-NH2] (H-RIRWILRYWRWS-NH2; N-terminus assumed)	0.5	1	2	1	2	8	8	4	4	1	0.25	8	2	100	100	100	100	work on the membrane of Escherichia coli and Staphylococcus aureus to show PI	work on the membrane of Escherichia coli and Staphylococcus aureus to show PI	has decreased	Wound healing of infected mouse skin wound [16]: showed epidermalization and wound maturation
